In series [1] the test system is BaF3. Description: Proliferation of parental BaF3 cells (CCK-8). Particulars: Mus musculus, read-out: GI50 BaF3. Format: cell-based, mouse. An excerpt: Compounds as provided herein were further evaluated for their inhibitory effects on proliferation of cancer cells by testing their effects on growth of cancer cells. In this example the following cells were used: primary mouse B cells BaF3 (purchased from ATCC), GIST-T1 cells of the human gastrointestinal stromal tumor cell line (expressing wild-type KIT gene) (purchased from Cosmo Bio Co., Ltd. (Japan)). The present lab further constructed and used the following: mouse Tel-Kit-BaF3 (stably expressing KIT wild-type kinase), mouse Tel-Kit/T670I-BaF3 (stably expressing KIT T670I mutant kinase), mouse Tel-Kit/V559A-BaF3 (stably expressing KIT V559A mutant kinase), mouse Tel-Kit/V559D-BaF3 (stably expressing KIT V559D mutant kinase), mouse Tel-Kit/V559G-BaF3 (stably expressing KIT V559G mutant kinase), mouse Tel-Kit/V560D-BaF3 (stably expressing KIT V560D mutant kinase), mouse Tel-Kit/L576P-BaF3 (stably expressing KIT L576P mutant kinase), mouse Tel-Kit/V654A-BaF3 (stably expressing KIT V654A mutant kinase), mouse Tel-Kit/V654A/V559D-BaF3 (stably expressing KIT V654A V559D mutant kinase), mouse Tel-Kit/T670E-BaF3 (stably expressing KIT T670E mutant kinase), mouse Tel-Kit/T670I/V559D-BaF3 (stably expressing KIT T670I V559D mutant kinase), mouse Tel-Kit/S709F-BaF3 (stably expressing KIT S709F mutant kinase), mouse Tel-Kit/D816E-BaF3 (stably expressing KIT D816E mutant kinase), mouse Tel-Kit/D816H-BaF3 (stably expressing KIT D816H mutant kinase), mouse Tel-Kit/D820E-BaF3 (stably expressing KIT D820E mutant kinase), mouse Tel-Kit/D820G-BaF3 (stably expressing KIT D820G mutant kinase), mouse Tel-Kit/D820Y-BaF3 (stably expressing KIT D820Y mutant kinase), mouse Tel-Kit/N822K-BaF3 (stably expressing KIT N822K mutant kinase), mouse Tel-Kit/Y823D-BaF3 (stably expressing KIT Y823D mutant kinase), mouse Tel-Kit/A829P-BaF3 (stably expressing KIT A829P mutant kinase), GIST-T1-T670I cells of the human gastrointestinal stromal tumor cell line (expressing KIT-T670I mutant gene). The above cell lines were constructed by: amplifying respectively the sequences of human KIT and various mutant kinase regions of KIT via PCR, inserting the fragments respectively into MSCV-Puro vectors having a N-terminal TEL fragment and/or a NPM fragment and/or a TPR fragment (purchased from Clontech), transfecting mouse BaF3 cells with the vectors by means of retrovirus to obtain stably transfected cells, removing the growth factor IL-3, and thereby eventually obtaining cell lines that depend on the transferred protein KIT or various mutants of KIT. The GIST-T1-T670I (expressing C-KIT-T670I mutant gene) cell line was constructed by our laboratory as follows: designing sgRNA that targeted a region around T670 of the KIT gene with CRISPR Design Tool (website: crispr.mit.edu, Zhang Feng Lab), cloning it into pSpCas9(BB)-2A-Puro vector; co-transfecting cells with the resultant vector and a single-stranded oligonucleotide having T670I site mutation that is near to T670, subjecting the resultant to antibiotics screening, followed by dilution, and monocellular culture in a 96-well plate; validating the site T670 of the cells by sequence detection via Sanger sequencing.
The cells after incubation were detected using CCK-8 (purchased from MedChem Express, Shanghai, China) cell viability assay kit (CCK-8 may be reduced by dehydrogenase in living cells to a highly water-soluble yellow formazan product, and the amount of the resultant formazan is proportional to the number of living cells), the number of living cells were quantified with a microplate reader, and GI50 of the compounds and the control compounds were calculated (the results shown in Table 2 and Table 3).

Series [2] relates to TEL-cKIT/T670I-BaF3 mouse tumor model. Description: Tumor-grafted mouse model established with TEL-cKIT/T670I-BaF3 cells. It is filed as in vivo. Particulars: oral, every day. Here is the method: In this example Compound 1 and Compound 2 were respectively tested in TEL-cKIT/T670I-BaF3, TEL-cKIT/Y823D-BaF3, TEL-cKIT/D820G-BaF3 and GIST-T1-T670I mouse models.
Experimental protocols were as follows. • (1) Bal b/c female mice aged 4-6 weeks were purchased from Beijing Weitong Lihua Laboratory Animal Co., Ltd., and the mice were raised in an SPF laboratory. The drinking water and padding were sterilized by autoclaving. All operations on mice were conducted under aseptic conditions. • (2) About 5×10^6 TEL-cKIT/T670I-BaF3, TEL-cKIT/Y823D-BaF3, TEL-cKIT/D820G-BaF3 or GIST-T1-T670I cells were respectively injected subcutaneously onto the left back of all mice on Day 0. • (3) From Day 6, for the TEL-cKIT/T670I-BaF3 mouse model the corresponding mice were administrated orally every day with methylcellulose (HKI) as the vehicle (5 mice); with Compound 1 and Compound 2 at a dosage of 10 mg/kg, 20 mg/kg, 40 mg/kg, 100 mg/kg mouse weight (5 mice in each group); and with Sunitnib (purchased from MedChemExpress, China) at a dosage of 40 mg/kg mouse weight (5 mice). From day 6, for the TEL-cKIT/Y823D-BaF3 and TEL-cKIT/D820G-BaF3 mouse models the corresponding mice were administrated orally every day with methylcellulose (HKI) as the vehicle (5 mice); with Compound 1 and Compound 2 at a dosage of 40 mg/kg, 80 mg/kg mouse weight (5 mice in each group); and with Sunitnib (purchased from MedChemExpress, China) at a dosage of 40 mg/kg mouse weight (5 mice). From day 15, for the GIST-T1-T670I mouse model the corresponding mice were administrated orally every day with methylcellulose (HKI) as the vehicle (5 mice); with Compound 1 and Compound 2 at a dosage of 20 mg/kg, 40 mg/kg, 80 mg/kg mouse weight (5 mice in each group); and with Sunitnib at a dosage of 40 mg/kg mouse weight (5 mice). • (4) From day 6 (TEL-cKIT/T670I-BaF3, TEL-cKIT/Y823D-BaF3, TEL-cKIT/D820G-BaF3 mouse model) and From day 15 (GIST-T1-T670I mouse model), respectively, the length/width of the subcutaneous tumor were measured with a vernier caliper every day and the body weight of the mouse was recorded every day so as to determine the effects of Compound 1 and Compound 2 on the body weight and tumor size of the mice, respectively. • (5) The mice were sacrificed on Day 11 after administration for the TEL-cKIT/T670I-BaF3 mouse model, on Day 9 after administration for the TEL-cKIT/Y823D-BaF3 and TEL-cKIT/D820G-BaF3 mouse models, and on Day 28 after administration for the GIST-T1-T670I mouse model. The subcutaneous tumors were taken out, and the tumors were weighed and compared. • (6) The growth trend of subcutaneous tumors was calculated and the tumor size was calculated according to: length×width×width/2 mm^3.

Where two headings read alike, the source gives them in different places.

In general, GI50 refers to the concentration that inhibits growth by half.

`COc1cc2nccc(Oc3ccc(NC(=O)Cc4ccc(Cl)c(C(F)(F)F)c4)cc3)c2cc1OC` [Example 2, N-(4-((6,7-dimethoxyquinolin-4-yl)oxy)phenyl)-2-(4-chloro-3-(trifluoromethyl)phenyl)-acetamide]: the GI50 in series [1] (BaF3 parent cells, 72 hours, CCK-8) worked out at 5.97 µM. For the same molecule, in series [2] (40 mg/kg), the “inhibitory effects against tumor in mice” value is given as “excellent inhibitory effects against tumor in mice” and the tumor inhibition rate is at least 80%. Also, in series [2], the “influence on mice weight” value is reported as “without significant influence on mice weight”.

On to `COc1cc2nccc(Oc3ccc(NC(=O)Cc4ccc(C)c(C(F)(F)F)c4)cc3)c2cc1OC` [Example 1, N-(4-((6,7-dimethoxyquinolin-4-yl)oxy)phenyl)-2-(4-methyl-3-(trifluoromethyl)phenyl)acetamide], for which the GI50 in series [1] (BaF3, 72 h) came out at 7.26 µM. Further, the “inhibitory effects against tumor in mice” value in series [2] (40 mg/kg) is reported as “excellent inhibitory effects against tumor in mice”. Also, in series [2], the “influence on mice weight” value is “without significant influence on mice weight”.

These data come from US12404244B2, “Pan-KIT kinase inhibitor having quinoline structure and application thereof” (Tarapeutics Science Inc., priority 2018, dated 2025).
